From ChEMBL document CHEMBL3885881, “DrugMatrix”

Species on record: Rattus norvegicus
Experiment: DrugMatrix - Regimen: Daily Repeat
Type: toxicity, organism-based, Sprague-Dawley
Set-up: regimen Daily Repeat, gender Male, age 6-8 weeks
Settings: in vivo, po, route oral GAVAGE, vehicle .5 % CMC; for BASOPHIL / EOSINOPHIL / ERYTHROCYTE COUNT / HEMATOCRIT / HEMOGLOBIN / LEUKOCYTE COUNT / LYMPHOCYTE / MEAN CORPUSCULAR HEMOGLOBIN / MEAN CORPUSCULAR HEMOGLOBIN CONCENTRATION / MEAN CORPUSCULAR VOLUME / NEUTROPHIL / PLATELET COUNT: tissue Blood; for ALANINE AMINOTRANSFERASE / ALBUMIN / ALKALINE PHOSPHATASE / ASPARTATE AMINOTRANSFERASE / BLOOD UREA NITROGEN / CHLORIDE / CHOLESTEROL / CREATINE PHOSPHOKINASE / CREATININE / GLUCOSE / PHOSPHORUS / POTASSIUM / SODIUM / TOTAL BILIRUBIN / TOTAL PROTEIN: tissue Plasma
[1] = 0 mg/kg, 72 h, dose level Control, time 3 day
[2] = 0 mg/kg, 120 h, dose level Control, time 5 day
[3] = 22 mg/kg, 72 h, dose level High, time 3 day
[4] = 22 mg/kg, 120 h, dose level High, time 5 day
[5] = […], 72 h, dose 2.4 mg/Kg, dose level Low, time 3 day
[6] = […], 120 h, dose 2.4 mg/Kg, dose level Low, time 5 day

With `Cc1nc2n(c(=O)c1CCN1CCC(c3noc4cc(F)ccc34)CC1)CCCC2` [RISPERIDONE] the BASOPHIL [1] was 0%, the EOSINOPHIL [1] was 0% and the “ERYTHROCYTE COUNT” value [1] was 6.19 x10E6/uL. The HEMATOCRIT [1] was 36.94%, the HEMOGLOBIN [1] was 14.58 G/DL and the “LEUKOCYTE COUNT” value [1] was 11.54 x10E3/uL. The LYMPHOCYTE [1] was 84.8%, the “MEAN CORPUSCULAR HEMOGLOBIN” value [1] was 23.58 pg and the “MEAN CORPUSCULAR HEMOGLOBIN CONCENTRATION” value [1] was 39.44 G/DL. For the same compound, the “MEAN CORPUSCULAR VOLUME” value [1] was 59.76 fL, the NEUTROPHIL [1] was 13.8% and the “PLATELET COUNT” value [1] was 1068.8 x10E3/uL. The “ALANINE AMINOTRANSFERASE” value [1] was 38.17 u/L, the ALBUMIN [1] was 3.88 G/DL and the “ALKALINE PHOSPHATASE” value [1] was 391.33 u/L. For the same compound, the “ASPARTATE AMINOTRANSFERASE” value [1] was 69.83 u/L, the “BLOOD UREA NITROGEN” value [1] was 15 mg/dL and the CHLORIDE [1] was 104.17 MEQ/L. For the same compound, the CHOLESTEROL [1] was 72.17 mg/dL, the “CREATINE PHOSPHOKINASE” value [1] was 174.33 u/L and the CREATININE [1] was 0.58 mg/dL. It also gave a GLUCOSE [1] of 192.67 mg/dL, a PHOSPHORUS [1] of 10.52 mg/dL and a POTASSIUM [1] of 6.8 MEQ/L. For the same compound, the SODIUM [1] was 149.67 MEQ/L, the “TOTAL BILIRUBIN” value [1] was 0.78 mg/dL and the “TOTAL PROTEIN” value [1] was 6.28 G/DL. For the same compound, the BASOPHIL [2] was 0%, the EOSINOPHIL [2] was 0.17% and the “ERYTHROCYTE COUNT” value [2] was 6.72 x10E6/uL. The HEMATOCRIT [2] was 40.02%, the HEMOGLOBIN [2] was 15.83 G/DL and the “LEUKOCYTE COUNT” value [2] was 9.5 x10E3/uL. For the same compound, the LYMPHOCYTE [2] was 87.17%, the “MEAN CORPUSCULAR HEMOGLOBIN” value [2] was 23.57 pg and the “MEAN CORPUSCULAR HEMOGLOBIN CONCENTRATION” value [2] was 39.62 G/DL. For the same compound, the “MEAN CORPUSCULAR VOLUME” value [2] was 59.55 fL, the NEUTROPHIL [2] was 11% and the “PLATELET COUNT” value [2] was 1053.67 x10E3/uL. For the same compound, the “ALANINE AMINOTRANSFERASE” value [2] was 26.33 u/L, the ALBUMIN [2] was 4.02 G/DL and the “ALKALINE PHOSPHATASE” value [2] was 316.67 u/L. For the same compound, the “ASPARTATE AMINOTRANSFERASE” value [2] was 61.33 u/L, the “BLOOD UREA NITROGEN” value [2] was 18.67 mg/dL and the CHLORIDE [2] was 108 MEQ/L. The CHOLESTEROL [2] was 65.17 mg/dL, the “CREATINE PHOSPHOKINASE” value [2] was 161.17 u/L and the CREATININE [2] was 0.75 mg/dL. For the same compound, the GLUCOSE [2] was 177.33 mg/dL, the PHOSPHORUS [2] was 9.72 mg/dL and the POTASSIUM [2] was 6.18 MEQ/L. For the same compound, the SODIUM [2] was 150.5 MEQ/L, the “TOTAL BILIRUBIN” value [2] was 0.68 mg/dL and the “TOTAL PROTEIN” value [2] was 6.55 G/DL. The BASOPHIL [3] was 0%, the EOSINOPHIL [3] was 0% and the “ERYTHROCYTE COUNT” value [3] was 6.13 x10E6/uL. For the same compound, the HEMATOCRIT [3] was 38.1%, the HEMOGLOBIN [3] was 15.27 G/DL and the “LEUKOCYTE COUNT” value [3] was 13.67 x10E3/uL. The LYMPHOCYTE [3] was 90%, the “MEAN CORPUSCULAR HEMOGLOBIN” value [3] was 24.93 pg and the “MEAN CORPUSCULAR HEMOGLOBIN CONCENTRATION” value [3] was 40.1 G/DL. For the same compound, the “MEAN CORPUSCULAR VOLUME” value [3] was 62.17 fL, the NEUTROPHIL [3] was 7.67% and the “PLATELET COUNT” value [3] was 999.33 x10E3/uL. For the same compound, the “ALANINE AMINOTRANSFERASE” value [3] was 31.33 u/L, the ALBUMIN [3] was 3.77 G/DL and the “ALKALINE PHOSPHATASE” value [3] was 390.33 u/L. For the same compound, the “ASPARTATE AMINOTRANSFERASE” value [3] was 54 u/L, the “BLOOD UREA NITROGEN” value [3] was 13.67 mg/dL and the CHLORIDE [3] was 103.67 MEQ/L. For the same compound, the CHOLESTEROL [3] was 59 mg/dL, the “CREATINE PHOSPHOKINASE” value [3] was 158.67 u/L and the CREATININE [3] was 0.6 mg/dL. For the same compound, the GLUCOSE [3] was 179 mg/dL, the PHOSPHORUS [3] was 10.93 mg/dL and the POTASSIUM [3] was 6.37 MEQ/L. For the same compound, the SODIUM [3] was 148.67 MEQ/L, the “TOTAL BILIRUBIN” value [3] was 0.6 mg/dL and the “TOTAL PROTEIN” value [3] was 5.97 G/DL. For the same compound, the BASOPHIL [4] was 0%, the EOSINOPHIL [4] was 0.33% and the “ERYTHROCYTE COUNT” value [4] was 6.82 x10E6/uL. The HEMATOCRIT [4] was 40.93%, the HEMOGLOBIN [4] was 16.13 G/DL and the “LEUKOCYTE COUNT” value [4] was 11.33 x10E3/uL. The LYMPHOCYTE [4] was 91.67%, the “MEAN CORPUSCULAR HEMOGLOBIN” value [4] was 23.67 pg and the “MEAN CORPUSCULAR HEMOGLOBIN CONCENTRATION” value [4] was 39.47 G/DL. For the same compound, the “MEAN CORPUSCULAR VOLUME” value [4] was 60 fL, the NEUTROPHIL [4] was 6.67% and the “PLATELET COUNT” value [4] was 1104.33 x10E3/uL. The “ALANINE AMINOTRANSFERASE” value [4] was 28.33 u/L, the ALBUMIN [4] was 4.03 G/DL and the “ALKALINE PHOSPHATASE” value [4] was 320.33 u/L. The “ASPARTATE AMINOTRANSFERASE” value [4] was 53.33 u/L, the “BLOOD UREA NITROGEN” value [4] was 15.33 mg/dL and the CHLORIDE [4] was 106 MEQ/L. The CHOLESTEROL [4] was 70 mg/dL, the “CREATINE PHOSPHOKINASE” value [4] was 145.33 u/L and the CREATININE [4] was 0.63 mg/dL. The GLUCOSE [4] was 170.67 mg/dL, the PHOSPHORUS [4] was 10.97 mg/dL and the POTASSIUM [4] was 6.6 MEQ/L. The SODIUM [4] was 151.67 MEQ/L, the “TOTAL BILIRUBIN” value [4] was 0.7 mg/dL and the “TOTAL PROTEIN” value [4] was 6.6 G/DL. The BASOPHIL [5] was 0%, the EOSINOPHIL [5] was 0% and the “ERYTHROCYTE COUNT” value [5] was 5.99 x10E6/uL. The HEMATOCRIT [5] was 36.13%, the HEMOGLOBIN [5] was 14.37 G/DL and the “LEUKOCYTE COUNT” value [5] was 11.03 x10E3/uL. The LYMPHOCYTE [5] was 90%, the “MEAN CORPUSCULAR HEMOGLOBIN” value [5] was 23.97 pg and the “MEAN CORPUSCULAR HEMOGLOBIN CONCENTRATION” value [5] was 39.77 G/DL. For the same compound, the “MEAN CORPUSCULAR VOLUME” value [5] was 60.27 fL, the NEUTROPHIL [5] was 9% and the “PLATELET COUNT” value [5] was 1243 x10E3/uL. The “ALANINE AMINOTRANSFERASE” value [5] was 32 u/L, the ALBUMIN [5] was 3.73 G/DL and the “ALKALINE PHOSPHATASE” value [5] was 332.67 u/L. The “ASPARTATE AMINOTRANSFERASE” value [5] was 58 u/L, the “BLOOD UREA NITROGEN” value [5] was 11.33 mg/dL and the CHLORIDE [5] was 103.67 MEQ/L. The CHOLESTEROL [5] was 65.67 mg/dL, the “CREATINE PHOSPHOKINASE” value [5] was 164.67 u/L and the CREATININE [5] was 0.6 mg/dL. For the same compound, the GLUCOSE [5] was 180.67 mg/dL, the PHOSPHORUS [5] was 11.33 mg/dL and the POTASSIUM [5] was 6.43 MEQ/L. For the same compound, the SODIUM [5] was 148.33 MEQ/L, the “TOTAL BILIRUBIN” value [5] was 0.4 mg/dL and the “TOTAL PROTEIN” value [5] was 5.8 G/DL. For the same compound, the BASOPHIL [6] was 0%, the EOSINOPHIL [6] was 0.67% and the “ERYTHROCYTE COUNT” value [6] was 6.09 x10E6/uL. The HEMATOCRIT [6] was 37.37%, the HEMOGLOBIN [6] was 14.97 G/DL and the “LEUKOCYTE COUNT” value [6] was 13.13 x10E3/uL. For the same compound, the LYMPHOCYTE [6] was 81.67%, the “MEAN CORPUSCULAR HEMOGLOBIN” value [6] was 24.6 pg and the “MEAN CORPUSCULAR HEMOGLOBIN CONCENTRATION” value [6] was 40.1 G/DL. For the same compound, the “MEAN CORPUSCULAR VOLUME” value [6] was 61.4 fL, the NEUTROPHIL [6] was 13% and the “PLATELET COUNT” value [6] was 1107.33 x10E3/uL. For the same compound, the “ALANINE AMINOTRANSFERASE” value [6] was 33.33 u/L, the ALBUMIN [6] was 3.8 G/DL and the “ALKALINE PHOSPHATASE” value [6] was 344.67 u/L. The “ASPARTATE AMINOTRANSFERASE” value [6] was 57.33 u/L, the “BLOOD UREA NITROGEN” value [6] was 15.67 mg/dL and the CHLORIDE [6] was 102 MEQ/L. For the same compound, the CHOLESTEROL [6] was 70.33 mg/dL, the “CREATINE PHOSPHOKINASE” value [6] was 148.33 u/L and the CREATININE [6] was 0.53 mg/dL. It also gave a GLUCOSE [6] of 178.67 mg/dL, a PHOSPHORUS [6] of 10.7 mg/dL and a POTASSIUM [6] of 6.43 MEQ/L. For the same compound, the SODIUM [6] was 148.33 MEQ/L, the “TOTAL BILIRUBIN” value [6] was 0.47 mg/dL and the “TOTAL PROTEIN” value [6] was 6.07 G/DL.
